Source: patent publication EP1287826A1, “A crystalline form of the free base of Amlodipine” (Pfizer Limited, priority 2001, dated 2003)

Format: physicochemical
Experimental: The stability of crystalline amlodipine free base bulk and amlodipine free base tablets was assessed by storing samples for up to 6 or 12 weeks at 25°C/60%RH, 40°C/75%RH and 50°C/20%RH. Changes were monitored using a stability-indicating HPLC method. Results were calculated by normalised peak area (npa). Degradants were identified by comparison of their relative retention times against impurity standards.

- stability: stability was demonstrated
SMILES: CCOC(=O)C1=C(COCCN)NC(C)=C(C(=O)OC)C1c1ccccc1Cl (stereo not shown) [crystalline amlodipine free base, 2-[(2-aminoethoxy)]-methyl-4-(2-chlorophenyl)-3-ethoxycarbonyl-5-methoxycarbonyl-6-methyl-1,4-dihydropyridine]
